Results on 28 compounds are retold here after ChEMBL document CHEMBL1201862, “PubChem BioAssay data set” (2004).

Experiment [1] is described as follows: cells. It is filed as functional, cell-based.
Experiment [2] can be described thus: cells. The format is functional, cell-based. This is another data set of the same source.
Experiment [3] deals with T1, Fatty acid synthase (Homo sapiens, UniProt P49327). Put plainly: FAS thioesterase domain inhibitors, dose response, biochemical, endpoint fluorescence intensity, uHTS hits (AID 624327).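 Also: fluorescence from hydrolysis of an O-methyl fluorescein acyl ester substrate by the enzyme.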 The format is functional.
T1 sequence (P49327 whole entry, the tested form may be a part): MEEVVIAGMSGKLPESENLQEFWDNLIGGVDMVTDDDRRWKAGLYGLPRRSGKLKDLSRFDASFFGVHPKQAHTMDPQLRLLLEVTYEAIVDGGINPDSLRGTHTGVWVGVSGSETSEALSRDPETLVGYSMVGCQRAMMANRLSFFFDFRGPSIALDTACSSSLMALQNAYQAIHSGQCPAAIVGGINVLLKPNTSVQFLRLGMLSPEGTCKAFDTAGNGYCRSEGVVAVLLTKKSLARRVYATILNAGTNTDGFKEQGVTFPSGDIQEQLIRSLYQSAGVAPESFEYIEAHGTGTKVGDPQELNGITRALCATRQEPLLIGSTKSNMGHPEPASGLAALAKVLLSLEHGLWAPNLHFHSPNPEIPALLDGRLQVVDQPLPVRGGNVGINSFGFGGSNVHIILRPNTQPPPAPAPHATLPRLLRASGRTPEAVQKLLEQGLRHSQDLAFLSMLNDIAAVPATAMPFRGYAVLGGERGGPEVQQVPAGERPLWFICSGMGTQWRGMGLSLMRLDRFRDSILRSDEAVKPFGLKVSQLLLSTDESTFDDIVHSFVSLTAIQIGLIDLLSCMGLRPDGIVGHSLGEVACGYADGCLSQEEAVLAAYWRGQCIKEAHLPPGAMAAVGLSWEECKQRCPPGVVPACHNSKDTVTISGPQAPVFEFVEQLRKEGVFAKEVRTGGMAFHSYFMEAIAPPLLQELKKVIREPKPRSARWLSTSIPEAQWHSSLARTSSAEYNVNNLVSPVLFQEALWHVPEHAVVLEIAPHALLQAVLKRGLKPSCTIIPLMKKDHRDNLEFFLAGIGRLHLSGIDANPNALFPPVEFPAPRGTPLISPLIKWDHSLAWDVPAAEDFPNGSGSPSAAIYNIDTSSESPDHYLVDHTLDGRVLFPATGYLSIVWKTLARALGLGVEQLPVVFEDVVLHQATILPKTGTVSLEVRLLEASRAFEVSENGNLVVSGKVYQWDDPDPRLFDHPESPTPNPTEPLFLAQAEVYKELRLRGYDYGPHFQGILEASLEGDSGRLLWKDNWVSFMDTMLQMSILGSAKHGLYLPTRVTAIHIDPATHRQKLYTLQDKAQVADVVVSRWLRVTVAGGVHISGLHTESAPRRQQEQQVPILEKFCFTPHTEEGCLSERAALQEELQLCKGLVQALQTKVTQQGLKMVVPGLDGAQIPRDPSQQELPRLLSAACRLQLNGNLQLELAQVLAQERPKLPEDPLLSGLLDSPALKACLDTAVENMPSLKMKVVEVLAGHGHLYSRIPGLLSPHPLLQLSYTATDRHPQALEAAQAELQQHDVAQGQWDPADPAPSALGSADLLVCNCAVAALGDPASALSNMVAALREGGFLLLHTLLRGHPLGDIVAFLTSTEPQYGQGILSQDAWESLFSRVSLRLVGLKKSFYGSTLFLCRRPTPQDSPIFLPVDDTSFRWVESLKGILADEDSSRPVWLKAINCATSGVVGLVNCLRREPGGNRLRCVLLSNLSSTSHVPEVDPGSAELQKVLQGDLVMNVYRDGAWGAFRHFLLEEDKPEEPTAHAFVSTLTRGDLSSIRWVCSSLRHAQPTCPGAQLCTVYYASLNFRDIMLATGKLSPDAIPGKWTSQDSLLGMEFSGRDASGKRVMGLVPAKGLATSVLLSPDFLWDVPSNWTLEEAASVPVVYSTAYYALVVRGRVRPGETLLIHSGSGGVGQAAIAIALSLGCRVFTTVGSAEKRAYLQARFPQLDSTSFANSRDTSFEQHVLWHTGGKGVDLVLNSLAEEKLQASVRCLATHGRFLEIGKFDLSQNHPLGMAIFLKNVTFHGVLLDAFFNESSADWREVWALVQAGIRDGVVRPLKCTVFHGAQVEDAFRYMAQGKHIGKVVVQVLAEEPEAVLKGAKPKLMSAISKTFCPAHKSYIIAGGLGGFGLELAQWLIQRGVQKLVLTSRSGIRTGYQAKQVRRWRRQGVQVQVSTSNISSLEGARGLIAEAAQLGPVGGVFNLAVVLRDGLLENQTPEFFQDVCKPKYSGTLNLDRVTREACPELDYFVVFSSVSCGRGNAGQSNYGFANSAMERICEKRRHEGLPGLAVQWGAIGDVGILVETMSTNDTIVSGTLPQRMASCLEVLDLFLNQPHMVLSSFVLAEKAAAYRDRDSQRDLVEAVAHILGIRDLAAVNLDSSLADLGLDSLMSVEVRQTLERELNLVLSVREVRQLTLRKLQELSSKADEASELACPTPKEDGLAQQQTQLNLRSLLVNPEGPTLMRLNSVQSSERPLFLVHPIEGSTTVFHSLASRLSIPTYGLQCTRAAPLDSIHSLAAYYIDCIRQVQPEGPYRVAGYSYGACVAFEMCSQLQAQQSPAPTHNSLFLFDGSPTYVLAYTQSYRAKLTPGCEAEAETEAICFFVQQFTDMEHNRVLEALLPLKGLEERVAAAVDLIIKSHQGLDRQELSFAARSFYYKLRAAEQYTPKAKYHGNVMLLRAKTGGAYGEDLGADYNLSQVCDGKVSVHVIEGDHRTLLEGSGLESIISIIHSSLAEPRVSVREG
Experiment [4] addresses T1, Fatty acid synthase. Briefly: FAS thioesterase domain inhibitors, dose response, biochemical, kinetic fluorescence intensity (AID 624326).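 Also: rate of fluorescence rise from hydrolysis of a fluorogenic O-methyl fluorescein ester substrate.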 It is filed as functional.
A short description of experiment [5]: Luminescence Cell-Based Dose Response HTS to Identify Activators of Luciferase Translation or Activity in H4 […] Cells. [Related pubchem assays: 1829 (Project Summary), 1814 (Primary HTS)]. It is filed as functional.
The subject of experiment [6] is H4. Briefly: Luminescence Cell-Based Dose Response HTS to Identify Activators of 5'UTR Stem-Loop Driven Prion Protein mRNA Translation in H4 Neuroglioblastoma Cells. [Related pubchem assays: 1829 (Project Summary), 1814 (Primary HTS)]. It is filed as functional. The settings on record: Homo sapiens.
A short description of experiment [7]: inhibitors of intracellular T. cruzi replication, confirmation, NIH3T3 host cells, beta-gal luminescence (AID 2044).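 Also: intracellular parasites grown in NIH/3T3 mouse fibroblasts as host cells; luminescent beta-galactosidase reporter signal from transgenic T. cruzi replicating inside host cells; inhibitors lower the luminescence signal.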 The format is functional, cell-based.
Experiment [8] is described as follows: cytotoxicity toward NIH3T3 fibroblasts, dose response, counter-screen, cell-based, ATP luminescence, mouse fibroblasts (AID 2010).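 Also: cells exposed to compound for about 90 hours before reading.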 The format is functional.
Experiment [9] is described as follows: Luminescence Cell-Based Dose Retest to Confirm Inhibitors of Cancer Stem Cells. [Related pubchem assays (depositor defined):AID2717, AID2721]. The format is functional. To be noted: Homo sapiens.
Experiment [10] has as its system INS1. Put plainly: beta cell apoptosis inhibitors, cytokine rescue, dose response, luminescence, retest (AID 449756).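 Also: cell death triggered by IL-1 beta plus TNF-alpha plus IFN-gamma mixture; protective hits raise ATP signal compared with cytokine alone wells.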 The format is functional, cell-based. To be noted: Rattus norvegicus.
Experiment [11] addresses T2, Replicative DNA helicase DnaB (Mycobacterium tuberculosis, UniProt P9WMR3).
T2 sequence (P9WMR3 whole entry): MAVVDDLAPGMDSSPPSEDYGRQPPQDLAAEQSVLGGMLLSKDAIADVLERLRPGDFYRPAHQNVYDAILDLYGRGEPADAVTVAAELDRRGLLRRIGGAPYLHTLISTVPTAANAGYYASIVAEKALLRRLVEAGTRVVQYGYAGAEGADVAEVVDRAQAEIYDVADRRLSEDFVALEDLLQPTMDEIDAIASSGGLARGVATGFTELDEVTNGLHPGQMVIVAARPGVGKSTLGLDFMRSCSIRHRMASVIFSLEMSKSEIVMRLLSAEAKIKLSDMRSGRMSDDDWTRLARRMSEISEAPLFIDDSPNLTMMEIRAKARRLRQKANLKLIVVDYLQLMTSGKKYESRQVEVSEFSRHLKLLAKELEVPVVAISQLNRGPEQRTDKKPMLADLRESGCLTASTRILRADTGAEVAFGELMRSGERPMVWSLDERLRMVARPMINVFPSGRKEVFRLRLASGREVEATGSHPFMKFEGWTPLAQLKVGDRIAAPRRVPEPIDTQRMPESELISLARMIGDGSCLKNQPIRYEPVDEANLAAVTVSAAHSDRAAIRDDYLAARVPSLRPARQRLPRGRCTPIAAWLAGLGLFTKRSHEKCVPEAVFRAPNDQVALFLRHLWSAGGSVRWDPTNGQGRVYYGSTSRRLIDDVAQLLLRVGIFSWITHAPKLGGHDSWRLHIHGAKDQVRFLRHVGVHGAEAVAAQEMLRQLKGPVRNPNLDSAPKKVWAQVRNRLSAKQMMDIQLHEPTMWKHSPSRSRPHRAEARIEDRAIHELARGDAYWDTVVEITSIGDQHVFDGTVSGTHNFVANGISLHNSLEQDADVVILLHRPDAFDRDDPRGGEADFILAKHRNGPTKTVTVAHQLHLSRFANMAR
Briefly: DnaB intein splicing inhibitors, dose response, biochemical, cell-free fluorescence (AID 449749). The format is functional.

In experiment [12] the target is T3, Protein RecA (Mycobacterium tuberculosis, UniProt P9WHJ3).
T3 sequence (P9WHJ3 whole entry): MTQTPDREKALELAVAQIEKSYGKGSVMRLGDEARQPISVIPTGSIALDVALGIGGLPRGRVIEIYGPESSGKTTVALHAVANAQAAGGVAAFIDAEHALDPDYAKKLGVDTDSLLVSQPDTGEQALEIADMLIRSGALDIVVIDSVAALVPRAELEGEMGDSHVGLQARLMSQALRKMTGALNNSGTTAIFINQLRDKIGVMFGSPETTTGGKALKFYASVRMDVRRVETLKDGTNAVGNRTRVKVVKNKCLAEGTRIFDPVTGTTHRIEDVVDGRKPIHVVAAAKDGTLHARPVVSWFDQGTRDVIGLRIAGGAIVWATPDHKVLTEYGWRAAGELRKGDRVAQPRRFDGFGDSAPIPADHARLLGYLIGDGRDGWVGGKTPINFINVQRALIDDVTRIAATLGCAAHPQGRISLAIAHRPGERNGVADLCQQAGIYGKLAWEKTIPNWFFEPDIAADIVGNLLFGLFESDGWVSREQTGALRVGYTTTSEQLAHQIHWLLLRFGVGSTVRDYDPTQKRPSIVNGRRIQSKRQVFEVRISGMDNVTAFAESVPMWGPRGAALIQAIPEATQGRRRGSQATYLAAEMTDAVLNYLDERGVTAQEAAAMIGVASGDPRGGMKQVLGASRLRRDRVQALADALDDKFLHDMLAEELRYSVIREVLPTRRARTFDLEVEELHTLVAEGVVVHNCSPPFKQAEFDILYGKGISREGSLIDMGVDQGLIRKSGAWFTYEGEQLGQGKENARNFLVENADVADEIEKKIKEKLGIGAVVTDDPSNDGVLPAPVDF
Briefly: Fluorescence Cell-Free Homogeneous Dose Retest to Identify Inhibitors of RecA-Intein Splicing Activity. [Related pubchem assays (depositor defined):AID2097, AID2223, AID489010, AID492950]. The format is functional.

The target of experiment [13] is T4, Corticotropin-releasing factor receptor 2/Corticotropin-releasing factor-binding protein (Homo sapiens, UniProt P24387+Q13324).
T4 sequence (Q13324 whole entry): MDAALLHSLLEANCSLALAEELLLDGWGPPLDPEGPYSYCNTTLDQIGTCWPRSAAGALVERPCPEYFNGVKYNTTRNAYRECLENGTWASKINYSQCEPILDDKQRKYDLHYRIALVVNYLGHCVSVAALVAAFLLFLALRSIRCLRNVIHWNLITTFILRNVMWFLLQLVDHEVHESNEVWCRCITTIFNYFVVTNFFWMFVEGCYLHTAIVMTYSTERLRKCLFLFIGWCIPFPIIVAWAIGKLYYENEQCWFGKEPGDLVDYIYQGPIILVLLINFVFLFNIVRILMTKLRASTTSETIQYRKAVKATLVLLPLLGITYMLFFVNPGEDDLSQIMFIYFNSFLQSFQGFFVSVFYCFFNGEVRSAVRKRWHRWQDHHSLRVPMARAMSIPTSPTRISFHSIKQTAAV
T4 sequence (P24387 whole entry): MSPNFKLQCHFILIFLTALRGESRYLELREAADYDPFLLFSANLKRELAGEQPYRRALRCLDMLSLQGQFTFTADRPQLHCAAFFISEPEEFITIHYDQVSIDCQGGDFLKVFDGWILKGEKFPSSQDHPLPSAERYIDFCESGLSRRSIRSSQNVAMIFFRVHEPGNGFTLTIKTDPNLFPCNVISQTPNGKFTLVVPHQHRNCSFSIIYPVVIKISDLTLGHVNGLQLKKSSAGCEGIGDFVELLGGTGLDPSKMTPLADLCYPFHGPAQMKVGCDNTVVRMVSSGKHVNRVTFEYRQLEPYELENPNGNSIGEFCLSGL
Put plainly: Dose Response confirmation of uHTS hits for small molecule antagonists of the CRF-binding protein and CRF-R2 receptor complex. It is filed as functional. To be noted: read-out: IC50_Mean.

The target in experiment [14] is T4, Corticotropin-releasing factor receptor 2/Corticotropin-releasing factor-binding protein. Briefly: activators of CRF receptor 2 with binding protein – uHTS hits, confirmation (AID 602473). It is filed as functional. To be noted: read-out: EC50_Mean.
The target of experiment [15] is Paired box protein Pax-8 (Homo sapiens, UniProt Q06710). Put plainly: inhibitors of PAX8-driven TPO luciferase reporter, dose response, RMG-I cells, cherry-pick (AID 687027).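 Also: luciferase reporter driven by Pax8 target thyroperoxidase promoter measured by SteadyGlo luminescence.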 The format is functional, cell-based.
Sequence of Paired box protein Pax-8 (Q06710 whole entry): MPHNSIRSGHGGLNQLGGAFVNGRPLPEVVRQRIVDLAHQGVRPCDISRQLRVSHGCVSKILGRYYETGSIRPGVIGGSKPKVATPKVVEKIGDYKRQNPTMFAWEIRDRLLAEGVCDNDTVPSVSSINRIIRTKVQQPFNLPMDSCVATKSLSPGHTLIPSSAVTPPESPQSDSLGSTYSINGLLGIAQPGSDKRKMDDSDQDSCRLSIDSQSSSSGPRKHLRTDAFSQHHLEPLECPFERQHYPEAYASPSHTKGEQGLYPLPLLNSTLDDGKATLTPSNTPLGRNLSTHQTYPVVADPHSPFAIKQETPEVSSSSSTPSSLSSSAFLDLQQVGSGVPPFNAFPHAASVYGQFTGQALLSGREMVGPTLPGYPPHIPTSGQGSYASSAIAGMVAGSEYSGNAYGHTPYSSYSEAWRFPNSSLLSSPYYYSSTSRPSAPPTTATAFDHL

Structures are written as SMILES. Calls of active or inactive are those of the source. Rule as the data show it, for most assays here: actives have a measured EC50 and inactives only a lower limit.

Regarding `COc1ccc(C(=O)N2CCCCCC2)cc1S(=O)(=O)N1CCOCC1`, the EC50 in [1] and in [2] was > 350 µM (not active) in each case.

Take `COc1cccc(C(=O)C2CCCN(Cc3ccc4nsnc4c3)C2)c1` (configuration not stated): the EC50 in experiment [1] and in [2] was > 350 µM (not active) in each case.

In the case of `O=C(NNS(=O)(=O)c1ccc([N+](=O)[O-])cc1)c1ccc([N+](=O)[O-])cc1`, the IC50 in experiment [3] is 4.95 µM (active); in experiment [4] it was 4.24 µM (active).

As to `ON=C1c2cc(OCCN3CCCCC3)ccc2-c2ccc(OCCN3CCCCC3)cc21`, the EC50 was > 120 µM (not active) in [5]; > 350 µM (not active) in experiment [1]; > 120 µM (not active) in [6]; 1.43 µM (active) in experiment [7]; > 350 µM (not active) in [2]; > 60 µM (not active) in experiment [8].

Consider `Cc1ccc(NC(=O)Cn2cnc3c(=O)n(C)c(=O)n(C)c32)c(C)c1`, for which the EC50 in experiment [1] and in experiment [2] was > 350 µM (not active) in each case.

With `Nc1ccc(C(=O)Nc2ccc3[nH]c(-c4ccncc4)nc3c2)cc1`, the EC50 in experiment [1] is 49.5 µM (active); in experiment [2] it was > 350 µM (not active).

Take `O=C(COC(=O)c1cc([N+](=O)[O-])ccc1N1CCOCC1)Nc1c(Cl)cccc1C(F)(F)F`: the IC50 was 8.05 µM (active) in experiment [3] and 8.39 µM (active) in experiment [4].

On to `COc1ccc(/C=C/C(=O)c2ccc([N+](=O)[O-])o2)cc1`, for which the AC50 is 1.31 µM (active) in experiment [9] and 6.75 µM (active) in experiment [10].

Regarding `COC(=O)N1C(=O)[C@](CC(C)C)(c2ccccc2)N1C(=O)OC`, the IC50 is 0.544 µM (active) in [3] and 0.385 µM (active) in experiment [4].

Turning to `Cc1ccc(NC(=O)c2cc(NC(=O)/C=C\C(=O)O)ccc2N2CCCCC2)cc1`, the AC50 in experiment [11] is 14.4 µM (active). The EC50 in experiment [12] was 9.32 µM (active); in experiment [14] it was > 53 µM (inactive). Besides, the IC50 in experiment [13] is > 47.1 µM (inactive).

On to `COc1ccc(CCNC(=O)COC(=O)CCC(=O)c2ccc(F)cc2)cc1OC`, for which the EC50 in experiment [1] and in [2] was > 350 µM (not active) each time.

As to `CCCCn1c(=O)c2c(=O)cc(O)oc2c2ccccc21`, the EC50 in experiment [1] and in experiment [2] was > 350 µM (not active) each time.

`Cc1nc2scc(-c3ccccc3)c2c(=O)o1`: the IC50 in [3] is 5.75 µM (active); in experiment [4] it was 80 µM (inactive).

`COc1ccc(Nc2nc(-c3ccccc3O)nc3ccccc23)cc1`: the AC50 in experiment [9] is 2.75 µM (active).

In the case of `O=S(=O)(c1ccc(Cl)cc1)N1CCCC(c2nc(-c3ccc(F)cc3)no2)C1` (configuration not stated), the values for the IC50 in experiment [3] and in experiment [4] were 5.59 µM (active) and 6.27 µM (active), respectively.

`COc1cc(CCC(=O)NC2(C)CCS(=O)(=O)C2)cc(OC)c1OC` (configuration not stated): the IC50 in experiment [13] is > 47.1 µM (inactive). The EC50 in [14] was > 53 µM (inactive).

Regarding `CC(=O)Cn1c(=O)c2c(nc3n2CCCN3Cc2ccccc2)n(C)c1=O`, the EC50 in experiment [1] and in [2] was > 350 µM (not active) in each case.

`CCn1c(=O)c(C(=O)NCc2ccccc2OC)c(O)c2ccccc21`: in experiment [9], the AC50 was 1.26 µM (active).

For the compound `Cc1ccc(NC(=O)Nc2cccc(F)c2)nc1`, the EC50 is > 350 µM (not active) in experiment [1] and 11.8 µM (active) in experiment [2].

As to `COc1cc2c(c(OC)c1OC)-c1ccc(SC)c(=O)cc1C(NC=O)CC2` (configuration not stated), in experiment [15], the AC50 is < 0.26 µM (active).

`CC(C=Cc1ccccc1)=NNS(=O)(=O)c1ccc([N+](=O)[O-])cc1`: the IC50 in experiment [3] is 9.36 µM (active); in experiment [4], 6.23 µM (active).

Regarding `C[C@@H]1CN([C@H](C)CO)C(=O)c2cccc(NC(=O)NC3CCCCC3)c2O[C@@H]1CN(C)C(=O)Nc1ccc(C(F)(F)F)cc1`, the IC50 was 2.09 µM (active) in experiment [3] and 2.26 µM (active) in experiment [4].

As to `COc1ccc(S(=O)(=O)N2CCOCC2)cc1NC(=O)CC1CC2CCC1C2` (configuration not stated), the IC50 in experiment [13] is > 47.1 µM (inactive). Besides, the EC50 in experiment [14] is > 53 µM (inactive).

Consider `COc1cccc(CNC(=O)C2CCC(=O)N(CC3CCCCC3)C2)c1OC` (configuration not stated), for which, in experiment [13], the IC50 is > 47.1 µM (inactive). The EC50 in experiment [14] was > 53 µM (inactive).

Consider `Cc1ccc(C(=O)N/C(=C\c2cn(S(=O)(=O)N(C)C)c3ccccc23)C(=O)N2CCCC2)cc1`, for which the figures for the IC50 in experiment [3] and in experiment [4] were 1.58 µM (active) and 1.23 µM (active), respectively.

As to `C[C@@H]1CN([C@@H](C)CO)C(=O)c2cc(NC(=O)Nc3cccc4ccccc34)ccc2O[C@@H]1CN(C)Cc1ccc2c(c1)OCO2`, the AC50 in experiment [15] was 18.5 µM (active).

On to `C[C@@H]1CCCCO[C@H](CN(C)C(=O)Nc2ccc(C(F)(F)F)cc2)[C@@H](C)CN([C@@H](C)CO)C(=O)c2cc(NS(=O)(=O)c3ccccc3)ccc2O1`, for which the AC50 in [15] was 3.24 µM (active).

As to `CCc1nnc(S)n1/N=C/c1ccc(-c2ccc(Br)cc2)o1`, the EC50 in experiment [1] and in experiment [2] was > 350 µM (not active) each time.
